Molecular target: T1, Serine/threonine-protein kinase ATR [14-953] (Homo sapiens, UniProt Q13535)
T1 construct: 14-953
Assay: ATR Enzyme Assay
Experimental: In this experiment, the phosphorylation level of substrate protein P53 (Eurofins, 14-952) was detected by HTRF technology to measure the activity of ATR/ATRIP (Eurofins, 14-953) kinase. Reaction buffer (25 mM HEPES pH 8.0, 0.01% Brij-35, 1% Glycerol, 5 mM DTT, 1 mg/mL BSA), termination buffer (12.5 mM HEPES pH 8.0, 0.005% Brij-35, 0.5% Glycerol, 250 mM EDTA) and assay buffer (50 mM HEPES pH 7.0, 150 mM NaCl, 267 mM KF, 0.1% sodium cholate, 0.01% Tween 20) were prepared in advance. ATR/ATRIP was diluted with reaction buffer to a working solution of 2 ng/μL, and the substrate protein P53 was diluted with reaction buffer to a working solution of 80 nM, and […] (Sigma, A2383) working solution (containing 40 mM MnCl2) was prepared with reaction buffer. The compound was 3-fold diluted with DMSO, then diluted with reaction buffer into a working solution, then added to a 384-well plate at 2.5 μL/well, and centrifuged at 1500 rpm for 40 s. Then 2.5 μL of ATR/ATRIP working solution, P53 working solution and ATP working solution were added into the 384-well plate, centrifuged at 1500 rpm for 40 s and reacted at room temperature for 30 minutes.

T1 sequence (Q13535 14-953): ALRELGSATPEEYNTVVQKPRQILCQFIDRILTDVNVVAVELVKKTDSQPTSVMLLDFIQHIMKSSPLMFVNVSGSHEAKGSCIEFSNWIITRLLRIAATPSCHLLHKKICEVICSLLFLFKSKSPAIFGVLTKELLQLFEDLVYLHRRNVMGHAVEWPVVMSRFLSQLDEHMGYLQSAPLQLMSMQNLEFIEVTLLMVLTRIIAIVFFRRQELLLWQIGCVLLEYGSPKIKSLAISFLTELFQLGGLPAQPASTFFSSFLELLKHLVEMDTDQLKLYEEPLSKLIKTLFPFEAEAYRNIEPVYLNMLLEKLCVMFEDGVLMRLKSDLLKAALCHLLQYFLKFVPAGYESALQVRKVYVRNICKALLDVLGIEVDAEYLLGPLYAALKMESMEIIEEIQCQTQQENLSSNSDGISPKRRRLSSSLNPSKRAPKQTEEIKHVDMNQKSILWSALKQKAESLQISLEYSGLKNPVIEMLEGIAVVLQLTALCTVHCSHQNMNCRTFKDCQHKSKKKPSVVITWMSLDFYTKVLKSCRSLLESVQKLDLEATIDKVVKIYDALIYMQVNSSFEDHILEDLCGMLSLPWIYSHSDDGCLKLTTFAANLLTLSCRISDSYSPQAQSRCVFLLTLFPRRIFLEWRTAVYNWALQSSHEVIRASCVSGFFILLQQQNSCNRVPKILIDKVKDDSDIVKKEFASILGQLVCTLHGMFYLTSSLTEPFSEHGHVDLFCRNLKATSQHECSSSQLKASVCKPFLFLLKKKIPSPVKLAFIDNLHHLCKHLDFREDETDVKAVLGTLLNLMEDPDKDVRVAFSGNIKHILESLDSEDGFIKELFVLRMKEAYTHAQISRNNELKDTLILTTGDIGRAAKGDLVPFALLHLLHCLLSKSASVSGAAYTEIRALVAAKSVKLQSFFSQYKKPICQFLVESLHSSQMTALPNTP

IC50 | SMILES
14 nM | C[C@@H]1COCCN1c1nc2c(cnn2-c2cc[nH]n2)c2c1CCN2C [US20240025899, Compound 12]
6.5 nM | C[C@@H]1COCCN1c1nc2c(cnn2-c2cc[nH]n2)c2c1CCN2S(N)(=O)=O [US20240025899, Compound 5]

— BindingDB's records for patent US20240025899 (Shanghai De Novo Pharmatech, 2024)
